{"source": "the NIST ThermoML archive (doi:10.1016/j.fluid.2004.07.015)", "conditions": "101.33 kPa, Liquid", "note": "Numbers after ± are expanded uncertainties."}
{"smiles": "CCCCn1cc[n+](C)c1.F[P-](F)(F)(F)(F)F", "note": "[1-butyl-3-methylimidazolium hexafluorophosphate]", "values": [{"measurement": "mass density", "setting": "289.1 K", "result": "1372.6 ± 3", "unit": "kg/m3"}, {"measurement": "mass density", "setting": "291.1 K", "result": "1370.8 ± 2.9", "unit": "kg/m3"}, {"measurement": "mass density", "setting": "293.1 K", "result": "1369.1 ± 2.9", "unit": "kg/m3"}, {"measurement": "mass density", "setting": "295.1 K", "result": "1367.4 ± 2.9", "unit": "kg/m3"}, {"measurement": "mass density", "setting": "297.05 K", "result": "1365.8 ± 2.9", "unit": "kg/m3"}, {"measurement": "mass density", "setting": "299.1 K", "result": "1364.1 ± 2.9", "unit": "kg/m3"}, {"measurement": "mass density", "setting": "301.05 K", "result": "1362.4 ± 2.9", "unit": "kg/m3"}, {"measurement": "mass density", "setting": "303.15 K", "result": "1360.6 ± 2.9", "unit": "kg/m3"}, {"measurement": "mass density", "setting": "305.1 K", "result": "1359 ± 2.9", "unit": "kg/m3"}, {"measurement": "mass density", "setting": "307.15 K", "result": "1357.3 ± 2.9", "unit": "kg/m3"}, {"measurement": "mass density", "setting": "309.15 K", "result": "1355.6 ± 2.9", "unit": "kg/m3"}]}
